Converted amounts (≈) assume the structure as drawn. Like-named read-outs stand apart in the source and are kept apart here. Numbered stars: 1 amine (or outer) side, 2 acyl side, 3 side chain; on linkers, the order of the positions; unused ones are H or OH. Bridge positions count the residues as written; N and C are the ends. Square brackets hold non-standard residues; d marks the D form. Peptide text beside a SMILES is read from it. X7 = CC(C)CN([C@@H](CN)C(=O)[*:2])[*:1]; aThr = C[C@H](O)[C@H](N)C(=O)O; Dab = NCC[C@H](N)C(=O)O
Key:
[1] = system: A. baumannii
[2] = system: P. aeruginosa
[3] = system: HK-2 cell line; assay: In vitro renal cell toxicity assay (resazurin reduction)
Procedure: MICs were determined as described herein. HK-2 cell IC50 values were determined as described herein. Values are reported relative to Polymyxin B.

[4] = system: K. pneumoniae
[5] = system: E. coli
[6] = system: K. pneumoniae strains with elevated MICs to Polymyxin B; assay: MIC against strains with elevated MICs to Polymyxin B; assay type: cell-based, Klebsiella pneumoniae; details: Table 6D; for MIC K. pneumoniae 062: strain 062, elevated MIC to Polymyxin B; for MIC K. pneumoniae 063: strain 063, elevated MIC to Polymyxin B; for MIC K. pneumoniae 064: strain 064, elevated MIC to Polymyxin B; for MIC K. pneumoniae 655: strain 655, elevated MIC to Polymyxin B
How it was run: (§1)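 Duplicate runs; >2-fold disagreement = invalid, <2-fold = lower value kept. Inoculum: colonies (18-24 h Mueller-Hinton agar) suspended directly to 0.5 McFarland. Multiple tests → modal MIC.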

[7] = system: A. baumanii strains with elevated MICs to Polymyxin B; assay: as above; assay type: cell-based, Acinetobacter baumannii; details: Table 6D; for MIC A. baumannii 053: strain 053, elevated MIC to Polymyxin B; for MIC A. baumannii 056: strain 056, elevated MIC to Polymyxin B; for MIC A. baumannii 068: strain 068, elevated MIC to Polymyxin B; for MIC A. baumannii 070: strain 070, elevated MIC to Polymyxin B
How it was run: as §1

[8] = system: P. aeruginosa strains with elevated MICs to Polymyxin B; assay: as above; assay type: cell-based, Pseudomonas aeruginosa; details: Table 6D; for MIC P. aeruginosa 066: strain 066, elevated MIC to Polymyxin B; for MIC P. aeruginosa 067: strain 067, elevated MIC to Polymyxin B
How it was run: as §1

[9] = system: E. coli strains with elevated MICs to Polymyxin B; assay: as above; assay type: cell-based, Escherichia coli; details: Table 6D; for MIC E. coli 058: strain 058, elevated MIC to Polymyxin B; for MIC E. coli 059: strain 059, elevated MIC to Polymyxin B; for MIC E. coli 060: strain 060, elevated MIC to Polymyxin B; for MIC E. coli 061: strain 061, elevated MIC to Polymyxin B
How it was run: as §1

[10] = system: E. coli; assay: MIC in the presence of a fixed concentration (2 μg/mL) of Rifampicin; assay type: cell-based, Escherichia coli; details: Rifampicin 2 μg/mL, Table 5D
[11] = system: K. pneumoniae; assay: as above; assay type: cell-based, Klebsiella pneumoniae; details: Rifampicin 2 μg/mL, Table 5D
Procedure: (§2) The inoculum was prepared by making a direct suspension of isolated colonies (selected from an 18-24 hour Mueller-Hinton agar plate) adjusted to the 0.5 McFarland standard. […] The assays were performed in duplicate. […] In cases where the duplicate values varied by less than 2-fold, the lower of the two values is reported. If a variation of greater than 2-fold was observed, the assay was considered non-valid. Several of the compounds were subjected to multiple tests, and where this is the case, the MIC reflects the modal value obtained.

[12] = system: A. baumannii; assay: MIC in the presence of […] of rifampicin; assay type: cell-based, Acinetobacter baumannii; details: for MIC in combination with Rifampicin, A. baumannii ATCC BAA-747: A. baumannii ATCC BAA-747, Table 5D; for MIC in combination with Rifampicin, A. baumannii NCTC 13424: A. baumannii NCTC 13424, Table 5D
Procedure: as §2

[13] = absence of a second agent, Table 6B

2-aminomethyl- 4-methyl pentanoyl polymyxin E nonapeptide [Example D53]
MIC, A. baumannii ATCC BAA-747 ([1]; sole activity, Table 6C): 1 micrograms/mL | MIC, A. baumannii NCTC 13424 ([1]; sole activity, Table 6C): 2 micrograms/mL | MIC, P. aeruginosa ATCC 27853 ([2]; sole activity, Table 6C): 0.5 micrograms/mL | MIC, P. aeruginosa CCUG 59347 ([2]; sole activity, Table 6C): 1 micrograms/mL | HK-2 IC50 rel to PMB* [3]: 18.2 | MIC, K. pneumoniae ATCC 4352 ([4]; sole activity, Table 6C): 0.25 micrograms/mL | MIC, K. pneumoniae ATCC BAA-2146 ([4]; sole activity, Table 6C): 1 micrograms/mL | MIC, E. coli ATCC 25922 ([5]; sole activity, Table 6C): 1 micrograms/mL | MIC, E. coli NCTC 13441 ([5]; sole activity, Table 6C): 1 micrograms/mL

CC(C)CN[C@@H](CN)C(=O)N[C@H](C(=O)N[C@@H](CCN)C(=O)N[C@H]1CCNC(=O)[C@H]([C@@H](C)O)NC(=O)[C@H](CCN)NC(=O)[C@H](CCN)NC(=O)[C@H](CC(C)C)NC(=O)[C@@H](Cc2ccccc2)NC(=O)[C@H](CCN)NC1=O)[C@H](C)O [Example D51, (S)-2-(2-methylpropylamino) 3-aminopropanoyl polymyxin B nonapeptide] (H-[X7][aThr][Dab][Dab][Dab][dF]L[Dab][Dab]T; lactam 4-C)
MIC [1]: 1 µg/mL (≈ 0.905 µM) | HK-2 IC50 rel to PMB [3]: 34 | MIC [5]: 0.5 µg/mL (≈ 0.452 µM)

trans-4-(2- methylpropyl) pyrrolidine-3-carbonyl polymyxin B nonapeptide [Example D38]
MIC, A. baumannii ATCC BAA-747 [1, 13]: >8 micrograms/mL | MIC, A. baumannii NCTC 13424 [1, 13]: 2 micrograms/mL | MIC, P. aeruginosa ATCC 27853 [2, 13]: 1 micrograms/mL | MIC, P. aeruginosa CCUG 59347 [2, 13]: 2 micrograms/mL | HK-2 IC50 rel to PMB [3]: 6.3 | MIC, K. pneumoniae ATCC 4352 [4, 13]: 4 micrograms/mL | MIC, K. pneumoniae ATCC BAA-2146 [4, 13]: 8 micrograms/mL | MIC, E. coli ATCC 25922 [5, 13]: 8 micrograms/mL | MIC, E. coli NCTC 13441 [5, 13]: 8 micrograms/mL

trans-4-(2- methylpropyl) pyrrolidine-3- carbonyl-L-Thr- L-Dap-polymyxin B heptapeptide [Example D68]
MIC, A. baumannii ATCC BAA-747 ([1]; sole activity, Table 6C): 0.25 micrograms/mL | MIC, A. baumannii NCTC 13424 ([1]; sole activity, Table 6C): 0.5 micrograms/mL | MIC K. pneumoniae 062 [6]: 64 micrograms/mL | MIC K. pneumoniae 063 [6]: 64 micrograms/mL | MIC K. pneumoniae 064 [6]: 16 micrograms/mL | MIC A. baumannii 053 [7]: >256 micrograms/mL | MIC A. baumannii 056 [7]: 128 micrograms/mL | MIC A. baumannii 068 [7]: 16 micrograms/mL | MIC, P. aeruginosa ATCC 27853 ([2]; sole activity, Table 6C): 0.5 micrograms/mL | MIC, P. aeruginosa CCUG 59347 ([2]; sole activity, Table 6C): 0.5 micrograms/mL | HK-2 IC50 rel to PMB* [3]: 5.3 | MIC P. aeruginosa 065 ([8]; strain 065, elevated MIC to Polymyxin B): 16 micrograms/mL | MIC P. aeruginosa 066 [8]: 16 micrograms/mL | MIC P. aeruginosa 067 [8]: >256 micrograms/mL | MIC E. coli 058 [9]: 8 micrograms/mL | MIC E. coli 059 [9]: 16 micrograms/mL | MIC E. coli 060 [9]: 8 micrograms/mL | MIC E. coli 061 [9]: 32 micrograms/mL | MIC, K. pneumoniae ATCC 4352 ([4]; sole activity, Table 6C): 0.125 micrograms/mL | MIC, E. coli ATCC 25922 ([5]; sole activity, Table 6C): 0.25 micrograms/mL | MIC, E. coli NCTC 13441 ([5]; sole activity, Table 6C): 0.25 micrograms/mL

2-(2-aminoethyl)- undecanoyl polymyxin B nonapeptide [Example D27]
MIC in combination with Rifampicin, E. coli ATCC 25922 [10]: 0.125 micrograms/mL | MIC, A. baumannii ATCC BAA-747 [1, 13]: 0.25 micrograms/mL | MIC, A. baumannii NCTC 13424 [1, 13]: 1 micrograms/mL | MIC in combination with Rifampicin, K. pneumoniae ATCC 4352 [11]: 0.5 micrograms/mL | MIC in combination with Rifampicin, K. pneumoniae ATCC BAA-2146 [11]: 4 micrograms/mL | MIC K. pneumoniae 062 [6]: 16 micrograms/mL | MIC K. pneumoniae 063 [6]: 64 micrograms/mL | MIC K. pneumoniae 064 [6]: 16 micrograms/mL | MIC K. pneumoniae 655 [6]: 64 micrograms/mL | MIC A. baumannii 053 [7]: 64 micrograms/mL | MIC A. baumannii 056 [7]: 32 micrograms/mL | MIC A. baumannii 068 [7]: 2 micrograms/mL | MIC A. baumannii 070 [7]: 4 micrograms/mL | MIC, P. aeruginosa ATCC 27853 [2, 13]: 0.5 micrograms/mL | MIC, P. aeruginosa CCUG 59347 [2, 13]: 0.5 micrograms/mL | MIC in combination with Rifampicin, A. baumannii ATCC BAA-747 [12]: 1 micrograms/mL | MIC in combination with Rifampicin, A. baumannii NCTC 13424 [12]: 1 micrograms/mL | MIC P. aeruginosa 066 [8]: 16 micrograms/mL | MIC P. aeruginosa 067 [8]: >64 micrograms/mL | MIC E. coli 058 [9]: 2 micrograms/mL | MIC E. coli 059 [9]: 2 micrograms/mL | MIC E. coli 060 [9]: 4 micrograms/mL | MIC E. coli 061 [9]: 16 micrograms/mL | MIC, K. pneumoniae ATCC 4352 [4, 13]: 0.25 micrograms/mL | MIC, K. pneumoniae ATCC BAA-2146 [4, 13]: 0.5 micrograms/mL | MIC, E. coli ATCC 25922 [5, 13]: 0.125 micrograms/mL | MIC, E. coli NCTC 13441 [5, 13]: 0.06 micrograms/mL

(S)-1-(2- methylpropyl)- piperazine-2- carbonyl polymyxin E nonapeptide [Example D56]
MIC, A. baumannii ATCC BAA-747 ([1]; sole activity, Table 6C): 0.5 micrograms/mL | MIC, A. baumannii NCTC 13424 ([1]; sole activity, Table 6C): 0.5 micrograms/mL | MIC, P. aeruginosa ATCC 27853 ([2]; sole activity, Table 6C): 0.5 micrograms/mL | MIC, P. aeruginosa CCUG 59347 ([2]; sole activity, Table 6C): 1 micrograms/mL | HK-2 IC50 rel to PMB* [3]: 22 | MIC, K. pneumoniae ATCC 4352 ([4]; sole activity, Table 6C): 0.125 micrograms/mL | MIC, K. pneumoniae ATCC BAA-2146 ([4]; sole activity, Table 6C): 0.25 micrograms/mL | MIC, E. coli ATCC 25922 ([5]; sole activity, Table 6C): 0.25 micrograms/mL | MIC, E. coli NCTC 13441 ([5]; sole activity, Table 6C): 0.25 micrograms/mL

CC(C)CC1CNCC1C(=O)N[C@H](C(=O)N[C@@H](CCN)C(=O)N[C@H]1CCNC(=O)[C@H]([C@@H](C)O)NC(=O)[C@H](CCN)NC(=O)[C@H](CCN)NC(=O)[C@H](CC(C)C)NC(=O)[C@@H](Cc2ccccc2)NC(=O)[C@H](CCN)NC1=O)[C@H](C)O (single isomer, unassigned) [Example D39, trans-4-(2-methylpropyl) pyrrolidine-3-carbonyl polymyxin B nonapeptide]
HK-2 IC50 rel to PMB [3]: 5.4

2-(2-aminoethyl)- undecanoyl polymyxin B nonapeptide [Example D26]
MIC in combination with Rifampicin, E. coli ATCC 25922 [10]: 0.25 micrograms/mL | MIC in combination with Rifampicin, E. coli NCTC 13441 ([10]; E. coli NCTC 13441): 1 micrograms/mL | MIC, A. baumannii ATCC BAA-747 [1, 13]: 0.5 micrograms/mL | MIC, A. baumannii NCTC 13424 [1, 13]: 2 micrograms/mL | MIC in combination with Rifampicin, K. pneumoniae ATCC 4352 [11]: 0.5 micrograms/mL | MIC in combination with Rifampicin, K. pneumoniae ATCC BAA-2146 [11]: 4 micrograms/mL | MIC K. pneumoniae 062 [6]: 2 micrograms/mL | MIC K. pneumoniae 063 [6]: 4 micrograms/mL | MIC K. pneumoniae 064 [6]: 0.5 micrograms/mL | MIC K. pneumoniae 655 [6]: 4 micrograms/mL | MIC A. baumannii 053 [7]: 8 micrograms/mL | MIC A. baumannii 056 [7]: 4 micrograms/mL | MIC A. baumannii 068 [7]: 2 micrograms/mL | MIC A. baumannii 070 [7]: 2 micrograms/mL | MIC, P. aeruginosa ATCC 27853 [2, 13]: 0.5 micrograms/mL | MIC, P. aeruginosa CCUG 59347 [2, 13]: 0.5 micrograms/mL | MIC in combination with Rifampicin, A. baumannii ATCC BAA-747 [12]: 2 micrograms/mL | MIC in combination with Rifampicin, A. baumannii NCTC 13424 [12]: 1 micrograms/mL | MIC P. aeruginosa 066 [8]: 1 micrograms/mL | MIC P. aeruginosa 067 [8]: 8 micrograms/mL | MIC E. coli 059 [9]: 0.5 micrograms/mL | MIC E. coli 060 [9]: 2 micrograms/mL | MIC E. coli 061 [9]: 4 micrograms/mL | MIC, K. pneumoniae ATCC 4352 [4, 13]: 1 micrograms/mL | MIC, K. pneumoniae ATCC BAA-2146 [4, 13]: 2 micrograms/mL | MIC, E. coli ATCC 25922 [5, 13]: 0.5 micrograms/mL | MIC, E. coli NCTC 13441 [5, 13]: 2 micrograms/mL
